Measurements from patent publication US11970435B2, “Taste-modified creatine salts, compounds, compositions and uses thereof” (Augusta University Research Institute, Inc., priority 2017, dated 2024).
“And” between values parts separate entries of the source, which are not always exact repeats. Equal entries are not always repeated. Structures can show the parent of a compound that is named as a salt.

How the values were obtained:
[1] = Stability study: decomposition of creatine salts to creatinine in water, LC-MS/MS; type: physicochemical; conditions: for Creatinine, % / Salt, %: distilled water, 20° C.; for decomposition: at first, time intervals of 8 hours, water; for Formation of creatinine: deionized water, room temperature, period of 333 hours
Method: Mobile phase was 50% water and 50% acetonitrile with 0.1% formic acid in each. Column was a 2 mm×15 cm C18 column with 3 um particles. Flow rate 0.2 mL/min.
Samples were dissolved in distilled water and kept at 20° C. Mass spectrometry used a Waters Premier XE triple quadrupole mass spectrometer. Liquid chromatography used a Waters Acquity UPLC system.
Experiment was double checked with two simultaneous injections of each sample in various time intervals.

[2] = isolated product

For `CN(CC(=O)O)C(=N)N.Cl` [Salt 4, creatine hydrochloride], the “Creatinine, %” value ([1]; 0 Hrs, hydrochloride) was 1.8% and 1.7%, the “Salt, %” value ([1]; 0 Hrs, hydrochloride) was 98.2% and 98.3% and the “Creatinine, %” value ([1]; 8 Hrs) was 2.5%. The “Salt, %” value ([1]; 8 Hrs) was 97.5%, the “Creatinine, %” value ([1]; 16 Hrs) was 2.4% and the “Salt, %” value ([1]; 16 Hrs) was 97.6%. The “Creatinine, %” value ([1]; 24 Hrs) was 2.5%, the “Salt, %” value ([1]; 24 Hrs) was 97.5% and the “Creatinine, %” value ([1]; 32 Hrs, hydrochloride) was 2.4% and 2.5%. For the same compound, the “Salt, %” value ([1]; 32 Hrs, hydrochloride) was 97.6% and 97.5%, the “Creatinine, %” value ([1]; 40 Hrs, hydrochloride) was 2.4% and 2.5% and the “Salt, %” value ([1]; 40 Hrs, hydrochloride) was 97.6% and 97.5%. The “Creatinine, %” value ([1]; 48 Hrs) was 2.5%, the “Salt, %” value ([1]; 48 Hrs) was 97.5% and the “Creatinine, %” value ([1]; 56 Hrs, hydrochloride) was 2.5% and 2.4%. The “Salt, %” value ([1]; 56 Hrs, hydrochloride) was 97.5% and 97.6%, the “Creatinine, %” value ([1]; 64 Hrs) was 2.5% and the “Salt, %” value ([1]; 64 Hrs) was 97.5%. The “Creatinine, %” value ([1]; 72 Hrs, hydrochloride) was 2.5% and 2.6%, the “Salt, %” value ([1]; 72 Hrs, hydrochloride) was 97.5% and 97.4% and the “Creatinine, %” value ([1]; 138 Hrs, hydrochloride) was 3.0% and 2.8%. For the same compound, the “Salt, %” value ([1]; 138 Hrs, hydrochloride) was 97.0% and 97.2%, the “Creatinine, %” value ([1]; 166 Hrs) was 3.0% and the “Salt, %” value ([1]; 166 Hrs) was 97.0%. The “Creatinine, %” value ([1]; 190 Hrs) was 3.0%, the “Salt, %” value ([1]; 190 Hrs) was 97.0% and the “Creatinine, %” value ([1]; 214 Hrs, hydrochloride) was 3.1% and 3.3%. The “Salt, %” value ([1]; 214 Hrs, hydrochloride) was 96.9% and 96.7%, the “Creatinine, %” value ([1]; 240 Hrs, hydrochloride) was 3.0% and 3.3% and the “Salt, %” value ([1]; 240 Hrs, hydrochloride) was 97.0% and 96.7%. For the same compound, the “Creatinine, %” value ([1]; 287 Hrs, hydrochloride) was 3.2% and 3.5%, the “Salt, %” value ([1]; 287 Hrs, hydrochloride) was 96.8% and 96.5% and the “Creatinine, %” value ([1]; 310 Hrs, hydrochloride) was 3.3% and 3.6%. The “Salt, %” value ([1]; 310 Hrs, hydrochloride) was 96.7% and 96.4%, the “Creatinine, %” value ([1]; 333 Hrs, hydrochloride) was 3.6% and 3.5% and the “Salt, %” value ([1]; 333 Hrs, hydrochloride) was 96.4% and 96.5%. For the same compound, the decomposition [1] was less than 2.5% and the Formation of creatinine [1] was no more than 3.6%.

For “Amino((carboxymethyl)(methyl)amino)methaniminium 6-methyl-4-oxo-4H-1,2,3-oxathiazin-3-ide 2,2-dioxide [Salt 21a]”, the “Creatinine, %” value ([1]; 0 Hrs) was 0.4%, the “Salt, %” value ([1]; 0 Hrs) was 99.6% and the “Creatinine, %” value ([1]; 8 Hrs) was 0.4%. The “Salt, %” value ([1]; 8 Hrs) was 99.6%, the “Creatinine, %” value ([1]; 16 Hrs) was 0.4% and the “Salt, %” value ([1]; 16 Hrs) was 99.6%. For the same compound, the “Creatinine, %” value ([1]; 24 Hrs) was 0.5%, the “Salt, %” value ([1]; 24 Hrs) was 99.5% and the “Creatinine, %” value ([1]; 32 Hrs) was 0.5% and 0.4%. The “Salt, %” value ([1]; 32 Hrs) was 99.5% and 99.6%, the “Creatinine, %” value ([1]; 40 Hrs) was 0.5% and the “Salt, %” value ([1]; 40 Hrs) was 99.5%. For the same compound, the “Creatinine, %” value ([1]; 48 Hrs) was 0.5%, the “Salt, %” value ([1]; 48 Hrs) was 99.5% and the “Creatinine, %” value ([1]; 56 Hrs) was 0.5%. The “Salt, %” value ([1]; 56 Hrs) was 99.5%, the “Creatinine, %” value ([1]; 64 Hrs) was 0.5% and the “Salt, %” value ([1]; 64 Hrs) was 99.5%. The “Creatinine, %” value ([1]; 72 Hrs) was 0.5%, the “Salt, %” value ([1]; 72 Hrs) was 99.5% and the “Creatinine, %” value ([1]; 138 Hrs) was 0.6%. For the same compound, the “Salt, %” value ([1]; 138 Hrs) was 99.4%, the “Creatinine, %” value ([1]; 166 Hrs) was 0.7% and the “Salt, %” value ([1]; 166 Hrs) was 99.3%. The “Creatinine, %” value ([1]; 190 Hrs) was 0.7%, the “Salt, %” value ([1]; 190 Hrs) was 99.3% and the “Creatinine, %” value ([1]; 214 Hrs) was 0.8% and 0.7%. The “Salt, %” value ([1]; 214 Hrs) was 99.2% and 99.3%, the “Creatinine, %” value ([1]; 240 Hrs) was 0.8% and the “Salt, %” value ([1]; 240 Hrs) was 99.2%. For the same compound, the “Creatinine, %” value ([1]; 287 Hrs) was 0.9%, the “Salt, %” value ([1]; 287 Hrs) was 99.1% and the “Creatinine, %” value ([1]; 310 Hrs) was 0.9%. The “Salt, %” value ([1]; 310 Hrs) was 99.1%, the “Creatinine, %” value ([1]; 333 Hrs) was 1.0% and the “Salt, %” value ([1]; 333 Hrs) was 99.0%. The decomposition [1] was “under 0.5%” and the Formation of creatinine [1] was no more than 1%.

For `C[C@H](CCC(=O)NCCS(=O)(=O)O)[C@H]1CC[C@H]2[C@@H]3[C@H](O)C[C@@H]4C[C@H](O)CC[C@]4(C)[C@H]3C[C@H](O)[C@]12C` [Salt 26, Amino((2-ethoxy-2-oxoethyl)(methyl)amino)methaniminium 2-((R)-4-((3R,5S, 7R, 8R,9S,10S,12S,13R,14S,17R)-3,7,12-trihydroxy-10,13-dimethylhexadecahydro-1H-cyclopenta[a]phenanthren-17-yl)pentanamido)ethane-1-sulfonate], the “solubility in organic solvents and water” value [2] was “readily soluble”.
